Test results: patent publication US20100160251A1, “IMIDAZO COMPOUNDS” (priority 2006, published 2010)

System: γδT lymphocyte
Assay: Induction of γδT lymphocyte proliferation, human peripheral blood cells, BrdU labelling after 3 days of culture
Assay type: cell-based
Procedure: The activity on γδT lymphocyte proliferation is tested in the following way: human peripheral blood cells are cultured in the presence of an RPMI-type culture medium supplemented with L-glutamine (2 mM), penicillin/streptomycin (50 μg/50 IU/ml) and foetal calf serum (10%). The C-glycoside derivatives are added at various concentrations (10 to 0.05 mM), along with phytohemagglutin (PHA at […]), a positive control for lymphocyte proliferation.

`CC(=O)C[C@H]1O[C@H](CO)[C@@H](O[C@@H]2O[C@H](CO)[C@H](O)[C@H](O)[C@H]2O)[C@H](O)[C@H]1O` [Compound 1, 1-(C-β-D-lactopyranosyl)propan-2-one] was tested, and the “% stimulation relative to the control” value (concentration 0.05 (mM)) was 100%, the “% stimulation relative to the control” value (concentration 0.1 (mM)) was 110% and the “% stimulation relative to the control” value (concentration 0.5 (mM)) was 82%. For the same molecule, the “% stimulation relative to the control” value (concentration 1 (mM)) was 108%, the “% stimulation relative to the control” value (concentration 5 (mM)) was 169% and the “% stimulation relative to the control” value (concentration 10 (mM)) was 214%.
